Measurements from ChEMBL document CHEMBL1125208, “Applications of neural networks in quantitative structure-activity relationships of dihydrofolate reductase inhibitors” (J Med Chem, 1991).

Target: T1, Dihydrofolate reductase (Mus musculus) (UniProt P00375)
T1 sequence (whole entry): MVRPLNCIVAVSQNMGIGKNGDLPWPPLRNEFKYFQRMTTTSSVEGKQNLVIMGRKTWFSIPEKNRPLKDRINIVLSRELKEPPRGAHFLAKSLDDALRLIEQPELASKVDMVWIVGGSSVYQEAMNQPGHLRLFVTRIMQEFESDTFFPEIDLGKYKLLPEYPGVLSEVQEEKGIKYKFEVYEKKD
Experiment: Inhibition of dihydrofolate reductase from L1210 leukemia tumors

SMILES	Log 1/C
CC1(C)N=C(N)N=C(N)N1c1ccc(OCCCCNC(=O)c2ccc(S(=O)(=O)F)cc2)c(Cl)c1	7.66
CC1(C)N=C(N)N=C(N)N1c1ccc(OCCCCC(=O)Nc2ccc(S(=O)(=O)F)cc2)c(Cl)c1	7.24
CC1(C)N=C(N)N=C(N)N1c1ccc(OCCCNC(=O)Nc2cccc(S(=O)(=O)F)c2)c(Cl)c1	7.28
CC1(C)N=C(N)N=C(N)N1c1ccc(CNC(=O)Nc2ccc(S(=O)(=O)F)cc2)cc1	7.35
CC1(C)N=C(N)N=C(N)N1c1ccc(Cl)c(OCCCCOc2ccc(S(=O)(=O)F)cc2)c1	7.17
CC1(C)N=C(N)N=C(N)N1c1cccc(CCCCc2ccc(S(=O)(=O)F)cc2)c1	8.1
CC1(C)N=C(N)N=C(N)N1c1ccc(OCc2c(Cl)cccc2S(=O)(=O)F)c(Cl)c1	7.72
CC1(C)N=C(N)N=C(N)N1c1ccc(OCCOCCOc2ccc(S(=O)(=O)F)cc2)c(Cl)c1	7.14
CC1(C)N=C(N)N=C(N)N1c1ccc(OCc2ccc(Cl)cc2S(=O)(=O)F)c(Cl)c1	7.52
CC1(C)N=C(N)N=C(N)N1c1ccc(CCCCc2ccc(S(=O)(=O)F)c(Cl)c2)c(Cl)c1	7.7
CC1(C)N=C(N)N=C(N)N1c1cccc(OCCCCOc2ccc(S(=O)(=O)F)cc2)c1	7.49
CC1(C)N=C(N)N=C(N)N1c1ccc(OCCCCCCOc2ccc(S(=O)(=O)F)cc2)c(Cl)c1	7.46
CC1(C)N=C(N)N=C(N)N1c1ccc(Cl)c(CCc2ccc(S(=O)(=O)F)cc2)c1	5.82
CC1(C)N=C(N)N=C(N)N1c1cccc(CCCCc2cccc(S(=O)(=O)F)c2)c1	8.1
CC1(C)N=C(N)N=C(N)N1c1cccc(OCCOc2ccc(S(=O)(=O)F)cc2)c1	7.82
CC1(C)N=C(N)N=C(N)N1c1ccc(OCc2cc(Cl)ccc2S(=O)(=O)F)c(Cl)c1	7.27
CC1(C)N=C(N)N=C(N)N1c1ccc(CCC(=O)Nc2cccc(S(=O)(=O)F)c2)cc1	7.74
CC1(C)N=C(N)N=C(N)N1c1ccc(CCc2ccc(S(=O)(=O)F)c(Cl)c2)c(Cl)c1	7.85
CC1(C)N=C(N)N=C(N)N1c1cccc(OCC(=O)Nc2ccc(S(=O)(=O)F)cc2)c1	6.92
CC1(C)N=C(N)N=C(N)N1c1ccc(OCc2ccc(S(=O)(=O)F)cc2)c(Cl)c1	7.58
CC1(C)N=C(N)N=C(N)N1c1ccc(OCc2ccccc2S(=O)(=O)F)c(Cl)c1	7.43
CC1(C)N=C(N)N=C(N)N1c1ccc(SCC(=O)Nc2cccc(S(=O)(=O)F)c2)c(Cl)c1	7.66

SMILES	Log 1/C
CC1(C)N=C(N)N=C(N)N1c1cccc(CCc2ccc(S(=O)(=O)F)cc2)c1	8.1
CC1(C)N=C(N)N=C(N)N1c1ccc(OCCCNC(=O)Nc2ccc(S(=O)(=O)F)cc2)c(Cl)c1	7.68
CC1(C)N=C(N)N=C(N)N1c1ccc(OCc2cccc(C(=O)Nc3ccc(S(=O)(=O)F)cc3)c2)c(Cl)c1	6.92
CC1(C)N=C(N)N=C(N)N1c1ccc(CCCCc2ccccc2S(=O)(=O)F)c(Cl)c1	7.77
CC1(C)N=C(N)N=C(N)N1c1ccc(OCCCNC(=O)c2ccc(S(=O)(=O)F)cc2)c(Cl)c1	7.34
CN(C(=O)COc1ccc(N2C(N)=NC(N)=NC2(C)C)cc1Cl)c1ccc(S(=O)(=O)F)cc1	7.47
CC1(C)N=C(N)N=C(N)N1c1ccc(OCCCNC(=O)Nc2cccc(S(=O)(=O)F)c2)cc1	7.32
CC1(C)N=C(N)N=C(N)N1c1cccc(OCCCOc2ccc(S(=O)(=O)F)cc2)c1	7.96
CC1(C)N=C(N)N=C(N)N1c1ccc(OCc2ccc(Cl)c(S(=O)(=O)F)c2)c(Cl)c1	8
CC1(C)N=C(N)N=C(N)N1c1ccc(OCC(=O)Nc2cccc(S(=O)(=O)F)c2)c(Cl)c1	7.72
CC1(C)N=C(N)N=C(N)N1c1cccc(CNC(=O)Nc2cccc(Cl)c2)c1	8.05
CC1(C)N=C(N)N=C(N)N1c1ccc(OCc2cccc(S(=O)(=O)F)c2Cl)c(Cl)c1	7.49
CC1(C)N=C(N)N=C(N)N1c1ccc(CCc2ccc(Cl)c(S(=O)(=O)F)c2)c(Cl)c1	8.27
CC1(C)N=C(N)N=C(N)N1c1cccc(CCCCc2ccc(S(=O)(=O)F)c(Cl)c2)c1	7.7
CC1(C)N=C(N)N=C(N)N1c1cccc(CNC(=O)Nc2cccc(C#N)c2)c1	8.19
CC1(C)N=C(N)N=C(N)N1c1ccc(OCCCCNC(=O)Nc2cccc(S(=O)(=O)F)c2)c(Cl)c1	7.7
CC1(C)N=C(N)N=C(N)N1c1ccc(CCCCc2cc(Cl)ccc2S(=O)(=O)F)c(Cl)c1	7.06
CC1(C)N=C(N)N=C(N)N1c1ccc(CCCCc2ccc(Cl)cc2Cl)cc1	7.92
CC1(C)N=C(N)N=C(N)N1c1ccc(Cl)c(OCCCCCOc2ccc(S(=O)(=O)F)cc2)c1	6.72
CC1(C)N=C(N)N=C(N)N1c1cc(Cl)c(OCC(=O)Nc2ccc(S(=O)(=O)F)cc2)c(Cl)c1	7.74
CC1(C)N=C(N)N=C(N)N1c1ccc(OCCCC(=O)Nc2cccc(S(=O)(=O)F)c2)c(Cl)c1	7.17
CC1(C)N=C(N)N=C(N)N1c1ccc(OCc2ccc(C(=O)Nc3ccc(S(=O)(=O)F)cc3)cc2)c(Cl)c1	6.92

SMILES	Log 1/C
CC1(C)N=C(N)N=C(N)N1c1ccc(OCc2cccc(C(=O)Nc3cccc(S(=O)(=O)F)c3)c2)c(Cl)c1	7.24
CC1(C)N=C(N)N=C(N)N1c1ccc(OCc2cccc(S(=O)(=O)F)c2)c(Cl)c1	7.72
CC1(C)N=C(N)N=C(N)N1c1cccc(CCCCc2ccc(Cl)c(S(=O)(=O)F)c2)c1	8.37
CC1(C)N=C(N)N=C(N)N1c1ccc(OCc2ccc(S(=O)(=O)F)c(Cl)c2)c(Cl)c1	7.43
CC1(C)N=C(N)N=C(N)N1c1ccc(OCc2ccc(C(=O)Nc3cccc(S(=O)(=O)F)c3)cc2)c(Cl)c1	7.41
COc1cccc(NC(=O)NCc2cccc(N3C(N)=NC(N)=NC3(C)C)c2)c1	8.02
CC1(C)N=C(N)N=C(N)N1c1cccc(CCCCc2cc(Cl)ccc2S(=O)(=O)F)c1	7.96
CC1(C)N=C(N)N=C(N)N1c1ccc(CCCCc2cccc(Cl)c2S(=O)(=O)F)c(Cl)c1	8.2
CC1(C)N=C(N)N=C(N)N1c1ccc(OCCCOc2ccc(S(=O)(=O)F)cc2)c(Cl)c1	7.07
CC1(C)N=C(N)N=C(N)N1c1ccc(CCCCc2ccc(Cl)c(S(=O)(=O)F)c2)c(Cl)c1	8.11
CC1(C)N=C(N)N=C(N)N1c1ccc(SCC(=O)Nc2ccc(S(=O)(=O)F)cc2)c(Cl)c1	7.42
Cc1cc(NC(=O)NCc2ccc(N3C(N)=NC(N)=NC3(C)C)cc2)ccc1S(=O)(=O)F	7.72
CC1(C)N=C(N)N=C(N)N1c1cccc(CNC(=O)Nc2cccc([N+](=O)[O-])c2)c1	8.1
Cc1cc(NC(=O)NCCCOc2ccc(N3C(N)=NC(N)=NC3(C)C)cc2Cl)ccc1S(=O)(=O)F	8.06
CC1(C)N=C(N)N=C(N)N1c1ccc(CCCCc2ccc(S(=O)(=O)F)cc2Cl)cc1	7.96
CC1(C)N=C(N)N=C(N)N1c1cccc(CCCCc2ccc(Cl)cc2Cl)c1	8.03
CC1(C)N=C(N)N=C(N)N1c1ccc(OCc2ccc(S(=O)(=O)F)cc2Cl)c(Cl)c1	7.44
CC1(C)N=C(N)N=C(N)N1c1ccc(CCc2ccccc2)cc1	7.89
CC1(C)N=C(N)N=C(N)N1c1ccc(OCc2cc(S(=O)(=O)F)ccc2Cl)c(Cl)c1	7.38
CC1(C)N=C(N)N=C(N)N1c1cccc(CNC(=O)N2CCOCC2)c1	6.43
CC1(C)N=C(N)N=C(N)N1c1ccc(Cl)c(CCCCc2ccc(S(=O)(=O)F)cc2)c1	6.77
CCN(CC)C(=O)NCc1cccc(N2C(N)=NC(N)=NC2(C)C)c1	6.11

SMILES	Log 1/C
CC1(C)N=C(N)N=C(N)N1c1ccc(OCC(=O)Nc2ccc(S(=O)(=O)F)cc2)c(Cl)c1	7.43
CC1(C)N=C(N)N=C(N)N1c1ccc(OCc2ccc(COc3ccc(S(=O)(=O)F)cc3)cc2)c(Cl)c1	6.82
CC(Oc1ccc(N2C(N)=NC(N)=NC2(C)C)cc1Cl)C(=O)Nc1ccc(S(=O)(=O)F)cc1 (configuration not stated)	7.13
CC1(C)N=C(N)N=C(N)N1c1ccc(SCC(=O)Nc2ccc(S(=O)(=O)F)cc2)cc1	7.52
CC1(C)N=C(N)N=C(N)N1c1ccc(CCC(=O)Nc2ccc(S(=O)(=O)F)cc2)cc1	7.6
CC1(C)N=C(N)N=C(N)N1c1ccc(CCCCCCc2ccc(S(=O)(=O)F)cc2)cc1	7.12
Cc1cc(NC(=O)NCCOc2ccc(N3C(N)=NC(N)=NC3(C)C)cc2Cl)ccc1S(=O)(=O)F	7.82
Cc1cc(S(=O)(=O)F)ccc1COc1ccc(N2C(N)=NC(N)=NC2(C)C)cc1Cl	7.38
CC1(C)N=C(N)N=C(N)N1c1ccc(CCCCc2ccc(S(=O)(=O)F)cc2)cc1	7.7
CN(C)C(=O)c1cccc(NC(=O)NCc2cccc(N3C(N)=NC(N)=NC3(C)C)c2)c1	7.77
CC1(C)N=C(N)N=C(N)N1c1ccc(Cl)c(OCCOc2ccc(S(=O)(=O)F)cc2)c1	7.27
CC1(C)N=C(N)N=C(N)N1c1ccc(CNC(=O)Nc2ccc(S(=O)(=O)F)cc2)c(Cl)c1	7.92
CC1(C)N=C(N)N=C(N)N1c1ccc(CCc2cccc(Cl)c2S(=O)(=O)F)c(Cl)c1	8.3
CC1(C)N=C(N)N=C(N)N1c1ccc(CCC(=O)Nc2ccc(S(=O)(=O)F)cc2)c(Cl)c1	7.62
CC1(C)N=C(N)N=C(N)N1c1ccc(OCCCCOc2ccc(S(=O)(=O)F)cc2)c(Cl)c1	7.57
CC1(C)N=C(N)N=C(N)N1c1ccc(OCCCCCOc2ccc(S(=O)(=O)F)cc2)c(Cl)c1	7.57
CC1(C)N=C(N)N=C(N)N1c1ccc(OCc2ccccc2C(=O)Nc2ccc(S(=O)(=O)F)cc2)c(Cl)c1	7.24
CC1(C)N=C(N)N=C(N)N1c1ccc(OCc2cccc(Cl)c2S(=O)(=O)F)c(Cl)c1	7.42
CC1(C)N=C(N)N=C(N)N1c1ccc(CCc2ccc(S(=O)(=O)F)cc2Cl)c(Cl)c1	8.33
CC1(C)N=C(N)N=C(N)N1c1ccc(Cl)c(OCCCOc2ccc(S(=O)(=O)F)cc2)c1	7.51
CC1(C)N=C(N)N=C(N)N1c1ccc(OCCCC(=O)Nc2ccc(S(=O)(=O)F)cc2)c(Cl)c1	7.15
